Tests used:
[1] = Prolonged piperidine treatment of VKDNYI peptide resin (aspartimide formation, Asp-Asn motif); assay type: physicochemical; conditions: for D/L-Asu [%] / piperidides [%] / target [%]: 110 Fmoc removal cycles; for target [%]: target peptide VKDNYI
Description: (§1) Automated peptide synthesis, piperidine treatments of the resin samples and final TFA cleavages are performed as described in the protocols of example 4. In addition, 50 mg peptide resin samples are treated with a solution of DBU/piperidine/DMF (1:19:79) over 225 minutes to investigate the aspartimide formation at harsher Fmoc deprotection conditions often used for complete Fmoc removals in aggregation prone sequences.
(§2) The resulting peptide samples are analysied and all relevant impurities identified by UPLC-MS analysis (Xevo Waters Q-TOF-1, lock mass = 556.277 (leu-enkephaline), LC-conditions: CHS 18 1,7 µm (100x2.1 mm) at 40°C; water acetonitrile gradient of 5% to 35 % B over 10 min where buffer A is 0.1 % formic acid in water and buffer B is 0.1 % formic acid in acetonitrile, flow 0.6 ml/min).
In table 2 the amounts of by-products formed after the prolonged exposure of the peptide resins to piperidine (110 Fmoc removal cycles) are summarized for all side-chain protections used in this invention. […] Table 2: Results after 110 Fmoc removal cycles using piperidine, target peptide = VKDNYI, the aspartimide (Asu) derived by products are the aspartimide itself and the sum of piperidides

[2] = Prolonged DBU treatment of VKDNYI peptide resin (aspartimide formation); assay type: physicochemical; conditions: for D/L-Asu [%] / piperides [%]: DBU/piperidine/DMF (1:19:79), 225 minutes; for target [%]: target peptide VKDNYI, DBU/piperidine/DMF (1:19:79) over 225 minutes, 110 Fmoc removal cycles
Description: as §1, §2
In table 3 the amounts of by-products formed after prolonged DBU treatments are summarized for all side-chain protections used in this invention. […] Since the DBU mediated Fmoc removals are much quicker than the piperidine mediated, this experiment again represents a Fmoc SPPS assembly of an 100mer after introducing the aspartic acid residue using exclusively DBU for Fmoc cleavage. Table 3: Results after 110 Fmoc removal cycles using DBU, target peptide = VKDNYI, the aspartimide (Asu) derived by-products are the aspartimide itself and the sum of piperidides

[3] = Prolonged piperidine treatment of VKDRYI peptide resin (aspartimide formation, Asp-Arg motif); assay type: physicochemical; conditions: for D/L-Asu [%] / piperidides [%] / target [%]: 110 Fmoc removal cycles; for target [%]: target peptide VKDRYI
Description: (§3) Automated peptide synthesis, piperidine treatments of the resin samples and final TFA cleavages are performed as described in the protocols of example 4. In addition, to evaluate the advantage of the protecting groups used in this invention in heat accelerated SPPS we treat 50 mg peptide resin samples with a solution of 20% piperidine in DMF at 60°C over 200 minutes. Microwave assisted peptide synthesis conditions are often used to shorten peptide synthesis times and increase coupling reaction and Fmoc deprotection.
In table 4 the amounts of by-products formed after the prolonged exposure of the peptide resins to piperidine (110 Fmoc removal cycles) are summarized for all side-chain protections used in this invention. Table 4: Results after 110 Fmoc removal cycles using piperidine, target peptide sequence = VKDRYI, the aspartimide (Asu) derived by-products are the aspartimide itself and the sum of piperidides

[4] = Prolonged piperidine treatment at 60°C of VKDRYI peptide resin (aspartimide formation); assay type: physicochemical; conditions: for D/L-Asu [%] / piperidides [%]: 20% piperidine in DMF at 60°C, 200 minutes; for aspartimide by-products per cycle: piperidine at 60 degrees Celsius; for target [%]: target peptide VKDRYI, 20% piperidine in DMF at 60°C over 200 minutes, 100 Fmoc removal cycles
Description: as §3
The application of microwave heating to SPPS is accelerating coupling and deprotection reactions leading to shorter cycle times, higher repetitive yields, and ultimately purer peptides. On the other hand, microwave energy can also lead to increased levels of aspartimide by-products. To overcome that drawback we evaluated the advantage of the side-chain protections used in this invention by exposing the peptide resins to Fmoc removal cycles at 60 degrees Celsius.
In table 5 the amounts of by-products formed after the prolonged exposure of the peptide resins to piperidine at 60 degree Celsius (100 Fmoc removal cycles) are summarized for all side-chain protections used in this invention. […] Table 5: Results after 100 Fmoc removal cycles using piperidine at 60°C, target peptide sequence = VKDRYI, the aspartimide (Asu) derived by-products are the aspartimide itself and the sum of piperidides

[5] = Prolonged treatment of VKDGYI peptide resin with 1 M Oxyma Pure and 20 % piperidine (aspartimide formation); assay type: physicochemical; conditions: VKDGYI; for Asu per 10' cycle / Asu [%] / piperidides [%]: Oxyma Pure +; for Asu [%] / piperidides [%] / target [%]: 18 hours; for target [%]: Oxyma Pure +: 1 M Oxyma Pure and 20 % piperidine in dimethylformamide
Description: [drawing 14] 50 mg samples of the corresponding aspartic acid derivatives of example 4 are treated over 18 hours with a solution of 1 M Oxyma Pure and 20 % piperidine in dimethylformamide. The peptides are cleaved off the resin with 95 % TFA and analysed with HPLC as well as MS to identify all aspartimide related products (conditions see example 4). The results are summarized in table 6: Table 6: Results after 110 Fmoc removal cycles using an acidic modifier in the piperidine mediated Fmoc removal cocktails, target peptide = VKDG YI, the aspartimide derived by-products are the aspartimide itself and the sum of piperidides

[6] = Prolonged piperidine treatment of VKDGYI peptide resin (aspartimide formation, Asp-Gly motif)
[7] = VKDGYI, 20 % piperidine in dimethylformamide
[8] = VKDGYI, 20 % piperidine in dimethylformamide, 18 hours, aspartimide
[9] = VKDGYI, 20 % piperidine in dimethylformamide, 18 hours, sum of piperidides
[10] = VKDGYI, Oxyma Pure -: 20 % piperidine only, 18 hours (as Table 1)
[11] = target peptide VKDGYI, 20 % piperidine in dimethylformamide over 18 hours, 110 Fmoc removal cycles

| Compound | Asu per 10' cycle ([1]; VKDNYI, piperidine) | D/L-Asu [%] ([1]; VKDNYI, piperidine) | piperidides [%] ([1]; VKDNYI, piperidine) | target [%] ([1]; piperidine) | Asu per 2' cycle ([2]; VKDNYI, DBU) | D/L-Asu [%] ([2]; VKDNYI) | piperides [%] ([2]; VKDNYI) | target [%] [2] [%] | Asu per 10' cycle ([3]; VKDRYI) | Half-life in cycles ([3]; VKDRYI) [cycles] | D/L-Asu [%] ([3]; VKDRYI) | piperidides [%] ([3]; VKDRYI) | target [%] [3] [%] | D/L-Asu [%] ([4]; VKDRYI) | piperidides [%] ([4]; VKDRYI) | Asu per 10' cycle ([4]; VKDRYI, piperidine at 60°C) | target [%] [4] [%] | Asu per 10' cycle [5] | Asu [%] [5] [%] | piperidides [%] [5] [%] | also measured |
| --- | --- | --- | --- | --- | --- | --- | --- | --- | --- | --- | --- | --- | --- | --- | --- | --- | --- | --- | --- | --- | --- |
| CCC(C)(CC)OC(=O)C[C@H](NC(=O)OCC1c2ccccc2-c2ccccc21)C(=O)O [Mpe, Fmoc-Asp(OMpe)-OH, reference compound] | 0.5 | 4.3 | 37.5 | 58.2 | 1.5 | 7.5 | 73.7 | 18.8 | 0.4 | 173 | 6.9 | 28.9 | 64.2 | 16.9 | 19.6 | 0.5 | 63.5 | 0.16 | 3.8 | 12.0 | Half-life in cycles ([1]; VKDNYI, piperidine): 140 cycles; times more aspartimide per Fmoc removal cycle ([1]; VKDNYI, piperidine, in comparison to Bno): ten; Half-life in cycles ([2]; VKDNYI, DBU, 2' cycles): 46 cycles; times more aspartimide per Fmoc removal cycle ([3]; VKDRYI, in comparison to Bno): approximately seven; Half-life in cycles ([3]; VKDRYI, listed as Fmoc-Asp(OMpe)-OH): approx. 170 cycles; aspartimide by-products per cycle ([4]; VKDRYI): 0.5%; Half-life in cycles ([4]; VKDRYI, piperidine at 60°C): 153 cycles; target [%] [5]: 84.2%; Asu per 10' cycle [%] [6, 7]: 0.8%; Half-life in 10' cycles [6, 7]: 90 10' cycles; Asu [%] [6, 8]: 6.7%; piperidides [%] [6, 9]: 51.0%; Asu [%] ([6]; VKDGYI, Oxyma Pure -): 6.7%; Asu per 10' cycle ([6]; VKDGYI, Oxyma Pure -): 0.8; piperidides [%] ([6]; VKDGYI, Oxyma Pure -): 51.0%; target [%] [6, 10]: 42.3%; target [%] [6, 11]: 42.3% |
| CCC(CC)(CC)OC(=O)C[C@H](NC(=O)OCC1c2ccccc2-c2ccccc21)C(=O)O [Epe, (2S)-N-((9H-fluoren-9-ylmethyloxy)carbonyl)aspartic acid-4-((3-ethyl)pent-3-yl) ester] | 0.2 | 3.0 | 16.0 | 81.0 | 0.5 | 5.6 | 37.3 | 57.1 | 0.1 | 539 | 3.90 | 9.4 | 86.7 | 7.8 | 6.8 | 0.2 | 85.4 | 0.14 | 2.6 | 11.7 | Half-life in cycles [1]: 365 cycles; Half-life in cycles [2]: 138 cycles; Half-life in cycles [4]: 439 cycles; aspartimide by-products per cycle ([4]; VKDRYI): 0.2%; target [%] [5]: 85.7%; Asu per 10' cycle [%] [6, 7]: 0.4%; Asu [%] [6, 8]: 4.1%; piperidides [%] [6, 9]: 31.5%; Asu [%] ([6]; VKDGYI, Oxyma Pure -): 4.1%; Asu per 10' cycle ([6]; VKDGYI, Oxyma Pure -): 0.4; piperidides [%] ([6]; VKDGYI, Oxyma Pure -): 31.5%; target [%] [6, 10]: 64.4%; minimizes the aspartimide formation by a factor compared to Mpe ([6]; VKDGYI, relative to Mpe protection): two; target [%] [6, 11]: 64.4% |
| CC(C)(C)OC(=O)C[C@H](NC(=O)OCC1c2ccccc2-c2ccccc21)C(=O)O [tBu, Fmoc-Asp(OtBu)-OH, reference compound] | 1.6 | 4.9 | 79.0 | 16.1 | 5.2 | 2.6 | 97.1 | 0.3 | 1.3 | 55 | 16.9 | 58.4 | 24.7 | 28.7 | 41.0 | 1.2 | 30.3 | 0.45 | 8.8 | 30.1 | Half-life in cycles ([1]; VKDNYI, piperidine): 40 cycles; Half-life in cycles ([2]; VKDNYI, DBU, 2' cycles): 13 cycles; Half-life in cycles ([4]; VKDRYI, piperidine at 60°C): 58 cycles; target [%] [5]: 61.1%; Asu per 10' cycle [%] [6, 7]: 2.3%; Half-life in 10' cycles [6, 7]: 30 10' cycles; Asu [%] [6, 8]: 6.4%; piperidides [%] [6, 9]: 85.6%; Asu [%] ([6]; VKDGYI, Oxyma Pure -): 6.4%; Asu per 10' cycle ([6]; VKDGYI, Oxyma Pure -): 2.3; piperidides [%] ([6]; VKDGYI, Oxyma Pure -): 85.6%; target [%] [6, 10]: 8.0%; target [%] [6, 11]: 8.0% |

From patent publication EP2886531B1, “Aspartic acid derivatives” (Merck Patent GmbH, priority 2013, dated 2015)
